Measurements as given in patent publication US6391324B1, “Cosmetic skin care compositions containing pulegone” (Unilever Home & Personal Care USA, Division of Conopco, priority 2000, dated 2002).

Assays:
Type in all cases: cell-based
human keratinocytes [1] = test: Glucose Uptake Assay (3H 2-deoxy-glucose); details: for GLUCOSE UPTAKE % of CONTROL / GLUCOSE UPTAKE (cpm/μg PROTEIN ± S.D.): 4 hours preincubation
Protocol: (§1) Normal human keratinocytes, isolated from neonatal foreskin by trypsin treatment, were grown in Dulbecco's Modified Eagle's Medium (DMEM, Life Technologies, Grand Island, N.Y.) with 10% fetal bovine serum in the presence of irradiated mouse fibroblasts for establishing dividing keratinocyte colonies. Cells were incubated until their second passage and stored at −70° C. for future use. All incubations took place at 37° C. with 5% CO2. Frozen second passage keratinocytes were thawed and plated in T-175 flasks (Corning, Corning, N.Y.) with DMEM and grown for five days. After reaching 80% confluence, they were trypsinized and seeded into 6-well plates containing keratinocyte growth medium (KGM, Clonetics, San Diego, Calif.) with 0.15 mM calcium.
A sample of the keratinocytes grown in the keratinocyte culture described above, were plated in KGM medium at either 0.5 or 1 million cells/plate in six well plates and incubated for 4 days. The medium was then aspirated, and the wells were rinsed twice with Phosphate Buffered Saline (PBS), then the plates were incubated (1 mL/well) for 24 hours. The medium was replaced with fresh KBM, 10 μl of corn oil containing pulegone at various concentrations were added and cells were allowed to incubate (for 4 hours at 37° C.) before 2 μCi of ^3H 2-deoxy-glucose (Amersham, UK) were added to each well. Samples were then incubated for one hour. The medium was aspirated and wells were rinsed three times with PBS before the addition of 500 μL of 0.1N NaOH/well. After 10 minutes of agitation on a shaker, a 25 μL aliquot was removed for protein analysis, and 200 μL were transferred to a scintillation vial containing 5 mL Scintillation cocktail (Scintiverse) and counting was performed on a Beckman counter. ^3H-Glucose uptake results were expressed as CPM/μg protein.
(§2) Concentrations used in the examples below are of pulegone in a corn oil droplet. The in vitro concentration may not be relevant to in vivo concentration because there is partitioning between the oil and the culture medium. The medium concentration of the active is not the oil droplet concentration of the active. For the pulegone to elicit its effect on the cultured cells, it must diffuse out of the corn oil into the culture medium where it is then accessible to the cells. The pulegone concentration in the culture medium is therefore considerably less than the concentration in the corn oil droplet.

human keratinocytes [2] = test: Lipid Analysis (ceramides expression); details: for CERAMIDES % of CONTROL / CERAMIDES (ng/μg PROTEIN ± S.D.): three days
Protocol: as §1
A sample of the keratinocytes that were grown in the keratinocyte culture described above were placed in KGM (2 ml per well) at 0.2 million per 6-well plates and re-grown for five days until approximately 20% confluence was reached. Cells were fed and treated with pulegone as described above for the TG-1 Assay. After three days of treatment, cells were rinsed twice with PBS, then harvested by adding 3 ml of 0.1 N NaOH (Fisher) to each well and scraping with a rubber policeman. The supernatants were transferred to 16 mm×100 mm glass test tubes with teflon-coated caps and incubated for 1 hour at 70° C. After cooling to room temperature, a 50 μl aliquot was removed for protein determination (Pierce BCA assay, Rockford, Ill.). To each tube 320 μl of 1 N HCl and 2.5 ml of chloroform were added and the tubes mixed well. The tubes were then placed on a tumbler and agitated for thirty minutes. The mixtures were then centrifuged for 10 minutes at 2000×g. 2 mL of chloroform were removed from the organic phase and placed in an autosampler vial. The samples were then dried evaporated under N2, resuspended in 60 μl of chloroform:methanol 2:1 and transferred to an autosampler insert microtube which was placed inside another autosampler vial whcih was sealed. 40 μl of the sample was spotted (Camag Automatic TLC Sampler III, Wilmington, N.C.) on silica TLC plates (Whatman 4807-700) and the plates were developed in horizontal chambers (Camag) using the following solvent system: 1. 95:4.5:0.5 chloroform, methanol, acetic acid and 2. 60:40:2 hexane, ethyl ether, acetic acid. Following immersion in 10% copper sulfate in 8% phosphoric acid, plates were charred at 165° C. for 20 minutes and then read in a densitometer (Camag TLC Scanner II). The results were expressed in ng cermaides/μg protein.
as §2

human keratinocytes [3] = test: Transglutaminase (TG-1) Assay; details: for TG-1/DNA % of CONTROL / TG-1/DNA (Absorbance/Arbitrary Units of DNA ± Standard Deviation): three days
Protocol: as §1
A sample of the keratinocytes grown in the keratinocyte culture described above, were placed in KGM (2 ml per well) at 0.2 million cells/plate in 6-well plates and re-grown for five days until the cells reached approximately […], since TG-1 only begins to become expressed after confluence. […] One set of triplicate wells was left untreated to serve as control. After three days of incubation, cells were washed thoroughly with phosphate buffered saline (PBS, 10 mM sodium phosphate, 138 mM sodium chloride, 2.7 mM potassium chloride, pH 7.4) and placed at −70° C. for 2 hours. Cells were then thawed for two hours. The DNA content of cells was quantified by using the DNA-binding fluorophore, bis-benzimidazole (Hoechst 33258) and measuring the specific fluorescence of the DNA-bound fluorophore (360 nm excitation, 450 nm emission). Cellular TG-1 levels were determined by using a transglutaminase-1 (TG-1) specific monoclonal antibody as the primary antibody (BC1, Amersham, UK) and a peroxidase labeled rabbit antimouse IgG as the secondary antibody (Amersham, UK). The plates were blocked at room temperature with 5% nonfat milk in Tris-buffered saline (TBS, 10 mM Tris, 150 mM NaCL, pH 8.0) for one hour followed by two hours incubation with the primary antibody (1:4000 dilution) in 1% milk/TBS at room temperature. After rinsing the plates three times with 1% milk/TBS containing 0.05% Tween 20 (Bio-Rad, Hercules, Calif.), the plates were incubated with a 1:4000 dilution of the secondary antibody at room temperature for two hours. The plates were then rinsed three times with 1% milk/0.05% Tween 20/TBS and three times with PBS. Color was developed by incubation with o-phenylene-diamine (Sigma, St. Louis, Mo.) and hydrogen peroxide (Sigma) dissolved in a 1:1 mixture of 0.2 M dibasic sodium phosphate (Sigma) and 0.1 M citric acid at pH 5.0(Sigma). Solutions were transferred to 4 mL plastic cuvets (Fisher Scientific, Pittsburgh, Pa.) and the absorbance was read at 492 nm on an Ultraspec 3000 spectrophotometer (Pharmacia, Piscataway, N.J.) and TG-1 levels were expressed as absorbence/DNA fluoroscence.
as §2

[4] = pulegone 1% in corn oil droplet
[5] = pulegone 5% in corn oil droplet
[6] = pulegone 2.5% in corn oil droplet

CC(C)=C1CCC(C)CC1=O (stereo not shown) [Pulegone, 5-Methyl-2-(1-methylethylidene)cyclohexanone]
GLUCOSE UPTAKE % of CONTROL (human keratinocytes [1]; [4]): 77% | GLUCOSE UPTAKE (cpm/μg PROTEIN ± S.D.) (human keratinocytes [1]; [4]): 3.71 ± 0.35 cpm/μg PROTEIN | GLUCOSE UPTAKE % of CONTROL (human keratinocytes [1]; [5]): 189% | GLUCOSE UPTAKE (cpm/μg PROTEIN ± S.D.) (human keratinocytes [1]; [5]): 9.14 ± 0.69 cpm/μg PROTEIN | glucose uptake (human keratinocytes [1]; pulegone in corn oil): significantly increased glucose uptake | CERAMIDES % of CONTROL (human keratinocytes [2]; [4]): 65% | CERAMIDES (ng/μg PROTEIN ± S.D.) (human keratinocytes [2]; [4]): 8.97 ± 1.17 ng/μg PROTEIN | CERAMIDES % of CONTROL (human keratinocytes [2]; [6]): 171% | CERAMIDES (ng/μg PROTEIN ± S.D.) (human keratinocytes [2]; [6]): 23.8 ± 11.0 ng/μg PROTEIN | CERAMIDES % of CONTROL (human keratinocytes [2]; [5]): 308% | CERAMIDES (ng/μg PROTEIN ± S.D.) (human keratinocytes [2]; [5]): 42.8 ± 6.91 ng/μg PROTEIN | expression of ceramides in comparison to untreated keratinocytes (human keratinocytes [2]; pulegone in corn oil): increased expression of ceramides | TG-1/DNA % of CONTROL (human keratinocytes [3]; [4]): 121% | TG-1/DNA (Absorbance/Arbitrary Units of DNA ± Standard Deviation) (human keratinocytes [3]; [4]): 15.45 ± 2.32 Absorbance/Arbitrary Units of | TG-1/DNA % of CONTROL (human keratinocytes [3]; [6]): 196% | TG-1/DNA (Absorbance/Arbitrary Units of DNA ± Standard Deviation) (human keratinocytes [3]; [6]): 24.96 ± 4.85 Absorbance/Arbitrary Units of | TG-1/DNA % of CONTROL (human keratinocytes [3]; [5]): 286% | TG-1/DNA (Absorbance/Arbitrary Units of DNA ± Standard Deviation) (human keratinocytes [3]; [5]): 36.40 ± 0.89 Absorbance/Arbitrary Units of | transglutaminase-1 expression in comparison to untreated keratinocytes (human keratinocytes [3]; pulegone at 2.5% and 5% in corn oil): increased transglutaminase-1 expression
